Source: patent publication US6180625A, “Heterocyclic compounds regulating clotting” (Novo Nordisk A/S, priority 1998, dated 2001)

Biological target: T1, fVIIa/TF (Homo sapiens, UniProt P08709)
T1 construct: Single-chain fVII may be converted to two-chain fVIIa by factor Xa, factor XIIa, factor IXa, fVIIa or thrombin in vitro
Experiment: fX activation assay
Type: biochemical
Conditions: 100 pM fVIIa, 5 pM TF, 175 nM fX, 5-min incubation, S-2765 substrate, read-out: IC50 TF/FVII/FX
Description: Inhibitory Compounds are Identified in a fX Activation Assay:
The compounds are dissolved in DMSO and mixed with a solution of fVIIa in Ca^2 +-containing buffer (1+5). 30 μl of this mixture was then mixed with 45 μl TF (relipidated in PC/PS vesicles) and 25 μl of a solution containing fX, all in Ca^2 +-containing buffer. This gives final concentrations of 100 pM fVIIa, 5 pM TF, 175 nM fX and various concentrations of the compounds. After a 5-min incubation, the fVIIa/TF-catalyzed activation of fX is terminated by the addition of 50 μl buffer containing enough EDTA to give an excess over the Ca^2+ ions present. 50 μl of a 2-mM solution of S-2765 (fXa substrate) is then added and the fXa formed is allowed to hydrolyze the substrate for 10 minutes during which the absorbance at 405 nm is continuously monitored in a SPECTRAmax™ 340 plate reader. The slope of the absorption curve is compared to that of a control where DMSO alone was added to fVIIa/TF/fX.
IC50 TF/FVII/FX: The IC50 value in μM found from the FX activation assay

T1 sequence (P08709 213-466 limits assumed): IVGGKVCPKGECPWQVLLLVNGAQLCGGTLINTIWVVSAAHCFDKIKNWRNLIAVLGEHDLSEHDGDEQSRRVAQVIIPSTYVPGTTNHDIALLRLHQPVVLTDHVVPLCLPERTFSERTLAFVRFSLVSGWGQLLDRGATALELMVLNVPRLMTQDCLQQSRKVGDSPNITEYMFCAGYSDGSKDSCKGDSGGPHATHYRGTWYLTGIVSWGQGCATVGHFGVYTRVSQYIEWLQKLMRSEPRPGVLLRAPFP
T1 sequence (P08709 61-212 limits assumed): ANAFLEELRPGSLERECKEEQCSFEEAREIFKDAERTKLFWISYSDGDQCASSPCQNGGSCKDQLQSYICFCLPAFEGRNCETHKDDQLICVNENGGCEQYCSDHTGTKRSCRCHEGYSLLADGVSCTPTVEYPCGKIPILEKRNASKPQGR
T1 sequence (P13726 33-295 partner): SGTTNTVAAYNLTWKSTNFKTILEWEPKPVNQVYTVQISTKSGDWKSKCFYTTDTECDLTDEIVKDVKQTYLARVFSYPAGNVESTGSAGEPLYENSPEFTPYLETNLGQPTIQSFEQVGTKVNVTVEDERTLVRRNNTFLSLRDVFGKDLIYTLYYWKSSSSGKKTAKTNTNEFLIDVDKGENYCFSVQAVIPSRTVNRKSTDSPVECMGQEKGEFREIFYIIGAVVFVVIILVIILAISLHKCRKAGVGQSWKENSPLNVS

Molecule	IC50
COC(=O)c1cccc2nc(-c3ccccc3F)oc(=O)c12 [Example 75, 2-(2-Fluoro-phenyl)-4-oxo-4H-benzo[d][1,3]oxazine-5-carboxylic acid methyl ester]	5600 nM
O=c1oc(-c2ccccc2[N+](=O)[O-])nc2cccc([N+](=O)[O-])c12 [Example 83, 5-Nitro-2-(2-nitro-phenyl)-benzo[d][1,3]oxazin-4-one]	320 nM
O=c1oc(-c2cccnc2Cl)nc2cccc([N+](=O)[O-])c12 [Example 87, 2-(2-Chloro-pyridin-3-yl)-5-nitro-benzo[d][1,3]oxazin-4-one]	2800 nM
O=c1oc(-c2ccccc2F)nc2ccc(C(F)(F)F)cc12 [Example 95, 2-(2-Fluoro-phenyl)-6-trifluoromethyl-benzo[d][1,3]oxazin-4-one]	3100 nM

Further lines, results first:

IC50	Molecule
170 nM	O=c1oc(-c2c(F)cccc2F)nc2cccc(Cl)c12 [Example 116, 5-Chloro-2-(2,6-difluoro-phenyl)-benzo[d][1,3]oxazin-4-one]
900 nM	Cc1ccc2nc(-c3c(F)cccc3Cl)oc(=O)c2c1 [Example 41, 2-(2-Chloro-6-fluorophenyl)-6-methyl-4H-3,1-benzoxazin-4-one]
1100 nM	COc1ccc(Br)c(-c2nc3ccccc3c(=O)o2)c1 [Example 43, 2-(2-Bromo-5-methoxy-phenyl)-4H-3,1-benzoxazin-4-one]
600 nM	Cc1cccc(-c2nc3ccccc3c(=O)o2)c1 [Example 13, 2-m-Tolyl-4H-3,1-benzoxazin-4-one]

Tested on: not given
Experiment: not given
Conditions: blood; cited from earlier work

Molecule	half-life
heparin	approximately 80 minutes
